From ChEMBL document CHEMBL5143678, “Identification of Antithrombotic Natural Products Targeting the Major Substrate Binding Pocket of Protein Disulfide Isomerase” (J Nat Prod, 2022)
pKi: −log10 of the molar value. The source made the active and inactive calls. The calls are words filed in the database; no cut-off is given here.

Legend:
[1] = molecular target: T1, Protein disulfide-isomerase (Homo sapiens, UniProt P07237); assay: Binding affinity to recombinant His-tagged full length human PDI-b' x domain substrate binding pocket expressed in Escherichia coli BL21 (DE3) cells assessed as decrease in fluorescence intensity at 100 uM incubated for 10 mins by tryptophan fluorescence based assay
Target sequence in this assay (P07237 18-508 limits assumed): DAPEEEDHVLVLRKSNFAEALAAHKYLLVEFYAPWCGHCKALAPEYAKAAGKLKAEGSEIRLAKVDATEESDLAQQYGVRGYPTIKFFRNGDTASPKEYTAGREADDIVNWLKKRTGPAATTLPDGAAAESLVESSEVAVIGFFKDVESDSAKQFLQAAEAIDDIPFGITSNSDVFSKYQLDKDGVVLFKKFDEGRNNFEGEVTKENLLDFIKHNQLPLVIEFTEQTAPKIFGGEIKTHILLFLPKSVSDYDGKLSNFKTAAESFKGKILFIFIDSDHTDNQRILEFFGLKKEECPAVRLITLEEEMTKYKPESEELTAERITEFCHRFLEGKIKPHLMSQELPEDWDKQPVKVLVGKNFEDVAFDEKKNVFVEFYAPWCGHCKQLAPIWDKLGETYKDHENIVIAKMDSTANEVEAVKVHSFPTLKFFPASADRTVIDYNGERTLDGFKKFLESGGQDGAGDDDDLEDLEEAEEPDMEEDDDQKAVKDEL

[2] = molecular target: T1, Protein disulfide-isomerase; assay: Inhibition of recombinant His-tagged full length human PDI reductase activity assessed as inhibition of PDI/DTT-mediated cleavage of disulfide bond in insulin at 100 uM incubated for 40 mins by spectrophotometric analysis
Target sequence in this assay (P07237 18-508 limits assumed): as above

[3] = molecular target: T1, Protein disulfide-isomerase; assay: Binding affinity to recombinant His-tagged full length human PDI-b' x domain substrate binding pocket expressed in Escherichia coli BL21 (DE3) cells assessed as inhibition constant at 100 uM incubated for 10 mins by tryptophan fluorescence based assay
Target sequence in this assay (P07237 whole entry): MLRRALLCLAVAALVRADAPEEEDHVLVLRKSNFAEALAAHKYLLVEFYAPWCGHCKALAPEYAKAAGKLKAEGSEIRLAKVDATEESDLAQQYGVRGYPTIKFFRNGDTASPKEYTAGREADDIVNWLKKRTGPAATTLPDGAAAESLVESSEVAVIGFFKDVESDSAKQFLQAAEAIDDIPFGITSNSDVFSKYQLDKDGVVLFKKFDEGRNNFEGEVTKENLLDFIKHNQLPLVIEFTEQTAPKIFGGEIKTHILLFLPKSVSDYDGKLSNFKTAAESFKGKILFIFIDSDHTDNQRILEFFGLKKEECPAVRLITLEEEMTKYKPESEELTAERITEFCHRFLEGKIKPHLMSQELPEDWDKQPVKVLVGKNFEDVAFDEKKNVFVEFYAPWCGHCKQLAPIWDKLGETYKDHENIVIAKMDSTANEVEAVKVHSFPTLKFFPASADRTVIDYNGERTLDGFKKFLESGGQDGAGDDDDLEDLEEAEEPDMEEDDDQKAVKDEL

[4] = molecular target: T2, Protein disulfide-isomerase A6 (Homo sapiens) (UniProt Q15084); assay: Inhibition of ERp5 (unknown origin) reductase activity assessed as inhibition of PDI/DTT-mediated cleavage of disulfide bond in insulin in the presence of DTT incubated for 40 mins by spectrophotometric analysis; details: dose 100-200 µM, DDE = dose-dependent effect
T2 sequence (whole entry): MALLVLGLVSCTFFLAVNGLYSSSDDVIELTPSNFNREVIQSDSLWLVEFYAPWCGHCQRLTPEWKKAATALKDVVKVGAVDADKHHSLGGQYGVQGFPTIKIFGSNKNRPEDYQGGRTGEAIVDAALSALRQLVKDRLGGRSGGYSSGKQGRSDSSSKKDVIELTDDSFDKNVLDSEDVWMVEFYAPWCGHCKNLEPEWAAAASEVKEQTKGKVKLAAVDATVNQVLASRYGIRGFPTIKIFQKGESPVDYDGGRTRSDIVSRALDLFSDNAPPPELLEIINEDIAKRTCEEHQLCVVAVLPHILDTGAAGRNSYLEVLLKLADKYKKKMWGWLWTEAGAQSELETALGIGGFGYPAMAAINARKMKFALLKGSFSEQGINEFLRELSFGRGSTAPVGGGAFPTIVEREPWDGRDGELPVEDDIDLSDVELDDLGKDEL

[5] = molecular target: T3, Protein disulfide-isomerase A4 (Homo sapiens) (UniProt P13667); assay: Inhibition of ERp72 (unknown origin) reductase activity assessed as inhibition of PDI/DTT-mediated cleavage of disulfide bond in insulin in the presence of DTT incubated for 40 mins by spectrophotometric analysis; details: dose 100-200 µM, DDE = dose-dependent effect
T3 sequence (whole entry): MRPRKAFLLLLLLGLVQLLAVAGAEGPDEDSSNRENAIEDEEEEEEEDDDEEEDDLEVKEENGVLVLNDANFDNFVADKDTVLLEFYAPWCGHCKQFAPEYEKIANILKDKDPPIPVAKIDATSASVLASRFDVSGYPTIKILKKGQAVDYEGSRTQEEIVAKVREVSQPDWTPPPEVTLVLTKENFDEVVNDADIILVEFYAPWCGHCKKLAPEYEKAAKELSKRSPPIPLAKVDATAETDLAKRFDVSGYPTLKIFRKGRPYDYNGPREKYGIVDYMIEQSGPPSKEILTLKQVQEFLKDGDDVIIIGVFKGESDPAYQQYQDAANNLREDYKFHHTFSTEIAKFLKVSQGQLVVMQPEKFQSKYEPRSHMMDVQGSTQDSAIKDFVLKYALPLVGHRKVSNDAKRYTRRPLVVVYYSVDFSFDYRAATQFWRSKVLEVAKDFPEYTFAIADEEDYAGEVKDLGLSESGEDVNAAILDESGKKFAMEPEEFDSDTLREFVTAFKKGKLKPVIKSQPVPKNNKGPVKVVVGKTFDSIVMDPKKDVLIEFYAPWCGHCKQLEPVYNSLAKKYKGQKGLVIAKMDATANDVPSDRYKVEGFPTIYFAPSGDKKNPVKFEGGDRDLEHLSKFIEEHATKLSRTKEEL

[6] = molecular target: T4, Protein disulfide-isomerase A3 (Homo sapiens) (UniProt P30101); assay: Inhibition of ERp57 (unknown origin) reductase activity assessed as inhibition of PDI/DTT-mediated cleavage of disulfide bond in insulin in the presence of DTT incubated for 40 mins by spectrophotometric analysis; details: dose 100-200 µM, DDE = dose-dependent effect
T4 sequence (whole entry): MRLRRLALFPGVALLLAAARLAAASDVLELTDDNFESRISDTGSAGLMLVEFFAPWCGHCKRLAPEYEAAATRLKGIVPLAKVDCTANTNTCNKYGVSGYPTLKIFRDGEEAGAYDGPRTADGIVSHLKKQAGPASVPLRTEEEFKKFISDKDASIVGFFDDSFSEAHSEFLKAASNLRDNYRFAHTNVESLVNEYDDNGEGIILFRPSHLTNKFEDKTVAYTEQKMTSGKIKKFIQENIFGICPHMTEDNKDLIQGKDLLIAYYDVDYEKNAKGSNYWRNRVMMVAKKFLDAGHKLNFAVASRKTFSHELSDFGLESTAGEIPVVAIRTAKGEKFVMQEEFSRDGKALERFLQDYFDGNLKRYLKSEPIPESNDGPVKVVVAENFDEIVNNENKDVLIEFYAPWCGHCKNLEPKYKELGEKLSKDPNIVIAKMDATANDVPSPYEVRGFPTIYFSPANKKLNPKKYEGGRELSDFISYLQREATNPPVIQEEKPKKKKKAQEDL

[7] = molecular target: T1, Protein disulfide-isomerase; assay: Inhibition of recombinant His-tagged full length human PDI reductase activity assessed as inhibition of PDI/DTT-mediated cleavage of disulfide bond in insulin in the presence of DTT incubated for 40 mins by spectrophotometric analysis; details: dose 100-200 µM, DDE = dose-dependent effect
Target sequence in this assay (P07237 18-508 limits assumed): as the sequence (P07237 18-508 limits assumed) above

[8] = Toxicity in anesthetized ICR mouse model of electrically-induced carotid artery thrombosis assessed as thrombus formation by measuring blood loss in tail at 30 mg/kg, iv; type: organism-based; details: in vivo
Mus musculus [9] = assay: Antithrombotic activity in anesthetized ICR mouse model of electrically-induced carotid artery thrombosis assessed as delay in occlusion time at 30 mg/kg, iv; type: functional, organism-based
Mus musculus [10] = assay: Antithrombotic activity in anesthetized ICR mouse model of electrically-induced carotid artery thrombosis assessed as inhibition of thrombosis formation by measuring increase in bleeding time at 30 mg/kg, iv; type: functional, organism-based

Row | SMILES | Activity [1] | inhibition [2] | pKi [3] | other results
1 | COc1cc(C=O)ccc1OC(C)=O | Active | Active | 3.51 | –
2 | NC(CO)C(=O)NNCc1ccc(O)c(O)c1O (centres undefined) | Active | – | – | –
3 | O=C(Nc1ccccc1)c1ccccc1O | Active | – | – | –
4 | O=c1c(O)c(-c2ccccc2)oc2ccccc12 | Active | – | – | –
5 | O=c1c(O)c(-c2ccccc2)oc2cc(O)cc(O)c12 [GALANGIN] | Active | Active | 5.23 | inhibition [4]: Dde; inhibition [5]: Dde; inhibition [6]: Dde; inhibition [7]: Dde; Activity [8]: Non-Toxic; Activity (Mus musculus [9]): Active; Activity (Mus musculus [10]): Active
6 | O=C(/C=C/c1ccc(O)cc1)c1ccc(O)cc1O [ISOLIQUIRITIGENIN] | Active | Active | 4.44 | –
